ChEMBL document CHEMBL3751699, “Design, synthesis and evaluation of novel 7-aminoalkyl-substituted flavonoid derivatives with improved cholinesterase inhibitory activities” (Bioorg Med Chem, 2016)
The source made the active and inactive calls. The rule behind the calls is not given here.

Legend:
Acetylcholinesterase [1] = molecular target: T1, Acetylcholinesterase (Electrophorus electricus, UniProt O42275); test: Inhibition of electric eel AChE using ATC as substrate preincubated for 15 mins followed by substrate addition measured at 1 min intervals by Ellman method
T1 sequence (O42275 whole entry): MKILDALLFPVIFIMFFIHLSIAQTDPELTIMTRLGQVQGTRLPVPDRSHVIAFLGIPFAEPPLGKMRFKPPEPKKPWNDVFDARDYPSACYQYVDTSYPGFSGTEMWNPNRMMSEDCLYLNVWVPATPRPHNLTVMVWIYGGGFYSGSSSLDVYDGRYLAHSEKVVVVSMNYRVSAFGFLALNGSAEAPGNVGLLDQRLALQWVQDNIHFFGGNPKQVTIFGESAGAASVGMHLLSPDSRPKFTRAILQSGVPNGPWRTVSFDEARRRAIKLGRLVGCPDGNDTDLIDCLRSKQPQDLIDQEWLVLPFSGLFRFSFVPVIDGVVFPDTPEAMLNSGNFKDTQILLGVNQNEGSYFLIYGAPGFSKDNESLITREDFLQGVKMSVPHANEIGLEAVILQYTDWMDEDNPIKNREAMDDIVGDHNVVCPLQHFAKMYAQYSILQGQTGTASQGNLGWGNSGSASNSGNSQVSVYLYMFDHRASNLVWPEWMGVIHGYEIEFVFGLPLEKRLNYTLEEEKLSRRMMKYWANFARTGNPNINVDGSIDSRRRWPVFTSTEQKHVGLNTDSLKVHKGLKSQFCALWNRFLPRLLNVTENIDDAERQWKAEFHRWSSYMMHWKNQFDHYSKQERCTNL

[2] = Cytotoxicity against human HepG2 cells at 10 uM after 48 hrs by MTT assay; assay type: cell-based; settings: read-out: INH
[3] = Cytotoxicity against rat PC12 cells at 1 uM after 48 hrs by MTT assay; assay type: cell-based, PC-12; settings: read-out: INH
Cholinesterase = Cholinesterase (Equus caballus, UniProt P81908); test: Inhibition of equine serum BChE using BTC as substrate preincubated for 15 mins followed by substrate addition measured at 1 min intervals by Ellman method
Cholinesterase, sequence (P81908 whole entry): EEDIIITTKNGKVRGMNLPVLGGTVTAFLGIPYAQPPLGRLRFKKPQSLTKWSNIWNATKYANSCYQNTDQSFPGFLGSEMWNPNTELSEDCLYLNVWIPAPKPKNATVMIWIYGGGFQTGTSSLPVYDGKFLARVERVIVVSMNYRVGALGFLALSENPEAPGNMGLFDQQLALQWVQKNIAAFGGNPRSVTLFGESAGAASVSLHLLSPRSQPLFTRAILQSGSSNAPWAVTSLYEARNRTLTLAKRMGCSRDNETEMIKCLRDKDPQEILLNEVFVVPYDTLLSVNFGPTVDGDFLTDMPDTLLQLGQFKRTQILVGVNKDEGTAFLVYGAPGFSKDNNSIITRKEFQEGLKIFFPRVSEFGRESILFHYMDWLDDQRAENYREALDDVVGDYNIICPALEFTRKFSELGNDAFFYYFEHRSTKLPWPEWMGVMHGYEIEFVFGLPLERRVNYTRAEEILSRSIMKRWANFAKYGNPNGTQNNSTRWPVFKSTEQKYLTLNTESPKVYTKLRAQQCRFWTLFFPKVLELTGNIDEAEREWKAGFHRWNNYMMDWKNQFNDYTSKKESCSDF

[4] = Selectivtiy index, ratio of IC50 for equine serum BChE to IC50 for electric eel AChE
[5] = Cytotoxicity against human HepG2 cells at 1 uM after 48 hrs by MTT assay; assay type: cell-based; settings: read-out: INH
[6] = Cytotoxicity against rat PC12 cells at 10 uM after 48 hrs by MTT assay; assay type: cell-based, PC-12; settings: read-out: INH
[7] = molecular target: Acetylcholinesterase (Electrophorus electricus) (UniProt O42275); test: Potency index, ratio of IC50 for rivastigmine to IC50 for test compound for inhibition of electric eel AChE by Ellman method
Acetylcholinesterase (Electrophorus electricus), sequence (O42275 24-633 limits assumed): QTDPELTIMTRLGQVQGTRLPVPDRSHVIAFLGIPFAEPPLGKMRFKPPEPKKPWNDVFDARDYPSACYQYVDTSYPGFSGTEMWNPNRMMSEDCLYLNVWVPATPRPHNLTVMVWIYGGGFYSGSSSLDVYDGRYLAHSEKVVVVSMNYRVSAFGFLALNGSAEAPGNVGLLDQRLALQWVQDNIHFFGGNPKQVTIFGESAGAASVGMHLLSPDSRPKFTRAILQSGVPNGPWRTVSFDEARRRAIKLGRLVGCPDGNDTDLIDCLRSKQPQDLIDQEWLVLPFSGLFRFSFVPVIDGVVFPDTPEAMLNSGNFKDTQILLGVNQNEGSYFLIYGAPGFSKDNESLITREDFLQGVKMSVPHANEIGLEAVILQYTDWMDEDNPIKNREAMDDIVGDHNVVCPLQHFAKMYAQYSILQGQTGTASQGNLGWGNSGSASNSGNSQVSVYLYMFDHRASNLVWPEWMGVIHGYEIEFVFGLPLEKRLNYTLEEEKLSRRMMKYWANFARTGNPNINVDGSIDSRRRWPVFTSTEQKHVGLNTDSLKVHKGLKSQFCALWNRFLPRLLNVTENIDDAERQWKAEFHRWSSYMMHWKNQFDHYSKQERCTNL

[8] = molecular target: Cholinesterase (Equus caballus) (UniProt P81908); test: Mixed-type inhibition of equine serum BChE using BTC as substrate assessed as hydrolysis of BTC preincubated with protein for 15 mins followed by substrate addition by Lineweaver-Burk plot analysis
Cholinesterase (Equus caballus), sequence (P81908 whole entry): as the sequence (P81908 whole entry) above

Acetylcholinesterase [9] = molecular target: T1, Acetylcholinesterase; test: Mixed-type inhibition of electric eel AChE using ATC as substrate assessed as hydrolysis of ATC preincubated with protein for 15 mins followed by substrate addition by Lineweaver-Burk plot analysis

SMILES	IC50 (Acetylcholinesterase [1]) [nM]	cytotoxicity at 48 h, 10 µM [2] [%]	cytotoxicity at 48 h, 1 µM [3] [%]	IC50 (Cholinesterase) [nM]	Ratio IC50 [4]	cytotoxicity at 48 h, 1 µM [5] [%]	cytotoxicity at 48 h, 10 µM [6] [%]	Ratio IC50 [7]	inhibition [8]	Ki (Acetylcholinesterase [9]) [nM]
COc1ccccc1-c1cc(=O)c2ccc(OCCCCCCCCN3CCCC3)cc2o1	640	24.3	3.08	760	1.19	5.9	3.4	10		
O=c1cc(-c2ccc(-c3ccccc3)cc2)oc2cc(OCCCCCCCCN3CCCC3)ccc12	4800	71.9	0.46	> 25000	> 5.21	13.9	68.9			
Nc1c2c(nc3ccccc13)CCCC2 [TACRINE]			4.62				10.2			
COc1ccc(-c2cc(=O)c3ccc(OCCCCCCCCN4CCCC4)cc3o2)cc1	1700	21.5	-0.15	5420	3.19	6.69	-6.72			
O=c1cc(-c2ccc(OCc3ccccc3)cc2)oc2cc(OCCCCCCCCN3CCCC3)ccc12	1900	54.3	-2.83	> 25000	> 13.2	10.4	1.37			
O=c1cc(-c2ccccc2OCc2ccccc2)oc2cc(OCCCCCCCCN3CCCC3)ccc12	2010	34.1	0.47	5260	2.62	19.7	22.9			
O=c1cc(-c2cccc(OCc3ccccc3)c2)oc2cc(OCCCCCCCCN3CCCC3)ccc12	1580	30.6	0.79	> 25000	> 15.8	6.63	-2.53			
O=c1cc(-c2ccc(Br)cc2)oc2cc(OCCCCCCCCN3CCCC3)ccc12	2150	10.8	2.5	10200	4.77	13.3	-12.5			
Cc1ccc(-c2cc(=O)c3ccc(OCCCCCCCCN4CCCC4)cc3o2)cc1	1250	77.1	-0.55	1920	1.54	9.17	-0.03			
O=c1cc(-c2ccc(O)cc2)oc2cc(OCCCCCCCCN3CCCC3)ccc12	1210	21.4	0.7	4580	3.79	18.5	7.42			
O=c1cc(-c2ccccc2)oc2cc(OCCCCCCCCN3CCCC3)ccc12	1090	8.97	-2.83	2240	2.05	11.3	1.37			
COc1ccc(-c2cc(=O)c3ccc(OCCCCCCCCN4CCCC4)cc3o2)cc1OC	830	76	7.29	3430	4.13	13.5	-2.94			
O=c1cc(-c2cccc(O)c2)oc2cc(OCCCCCCCCN3CCCC3)ccc12	1120	43.9	-4.43	4920	4.39	19	-6.56			
O=c1cc(-c2cccc3ccccc23)oc2cc(OCCCCCCCCN3CCCC3)ccc12	720	18.9	3	420	0.58	4.42	9.01		Active	206
COc1cccc(-c2cc(=O)c3ccc(OCCCCCCCCN4CCCC4)cc3o2)c1	670	23.7	3.53	2290	3.42	16.2	-18.2			
O=c1cc(-c2ccc(Cl)cc2)oc2cc(OCCCCCCCCN3CCCC3)ccc12	1120	25.7	6.27	3460	3.09	6.39	-1.7			
O=c1cc(-c2ccc(N3CCCC3)cc2)oc2cc(OCCCCCCCCN3CCCC3)ccc12	1380	19	0.29	4100	2.97	5.74	-9.56			
O=c1cc(-c2ccccc2O)oc2cc(OCCCCCCCCN3CCCC3)ccc12	3070	60.6	-7.71	1260	0.41	5.92	6.61			
COc1cc(-c2cc(=O)c3ccc(OCCCCCCCCN4CCCC4)cc3o2)cc(OC)c1OC	1080	41.4	-4.47	2200	2.04	16.3	-13.8			
